{
  "source": "BindingDB's records for PubMed 10991999",
  "about": "(Cocensys, 2000)",
  "key": {"[1]": {"target": "Gamma-aminobutyric acid receptor subunit alpha-2 (Rattus norvegicus, UniProt P23576)", "sequence (P23576 whole entry)": "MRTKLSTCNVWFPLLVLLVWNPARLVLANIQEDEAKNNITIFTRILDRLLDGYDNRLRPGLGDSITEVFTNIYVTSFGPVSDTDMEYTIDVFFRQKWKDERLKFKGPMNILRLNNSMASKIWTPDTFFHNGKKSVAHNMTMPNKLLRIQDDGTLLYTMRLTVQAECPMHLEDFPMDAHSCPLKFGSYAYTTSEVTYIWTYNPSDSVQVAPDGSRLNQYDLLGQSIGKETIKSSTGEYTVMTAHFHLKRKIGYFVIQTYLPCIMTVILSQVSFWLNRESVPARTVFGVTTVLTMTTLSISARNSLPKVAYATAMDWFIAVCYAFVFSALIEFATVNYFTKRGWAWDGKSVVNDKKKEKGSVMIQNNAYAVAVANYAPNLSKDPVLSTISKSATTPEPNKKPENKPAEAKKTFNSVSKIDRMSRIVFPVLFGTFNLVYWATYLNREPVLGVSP"}, "[2]": {"target": "Gamma-aminobutyric acid receptor subunit alpha-3 (Rattus norvegicus, UniProt P20236)", "sequence (P20236 whole entry I342M/K409L)": "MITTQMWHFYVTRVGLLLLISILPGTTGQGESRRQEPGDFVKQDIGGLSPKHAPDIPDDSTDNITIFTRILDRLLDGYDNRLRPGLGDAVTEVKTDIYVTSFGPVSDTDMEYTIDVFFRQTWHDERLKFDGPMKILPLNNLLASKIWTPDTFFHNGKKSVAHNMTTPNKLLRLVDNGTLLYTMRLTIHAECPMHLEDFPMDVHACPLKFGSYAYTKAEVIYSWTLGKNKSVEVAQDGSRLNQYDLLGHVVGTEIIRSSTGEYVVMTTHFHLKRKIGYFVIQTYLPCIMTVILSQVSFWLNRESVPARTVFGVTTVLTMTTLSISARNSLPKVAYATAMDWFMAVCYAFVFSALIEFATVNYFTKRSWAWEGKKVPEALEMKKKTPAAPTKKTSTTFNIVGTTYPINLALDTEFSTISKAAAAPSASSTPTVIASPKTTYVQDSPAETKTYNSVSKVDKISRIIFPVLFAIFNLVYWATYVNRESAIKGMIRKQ"}, "[3]": {"target": "Gamma-aminobutyric acid receptor subunit alpha-5 (Rattus norvegicus, UniProt P19969)", "sequence (P19969 whole entry)": "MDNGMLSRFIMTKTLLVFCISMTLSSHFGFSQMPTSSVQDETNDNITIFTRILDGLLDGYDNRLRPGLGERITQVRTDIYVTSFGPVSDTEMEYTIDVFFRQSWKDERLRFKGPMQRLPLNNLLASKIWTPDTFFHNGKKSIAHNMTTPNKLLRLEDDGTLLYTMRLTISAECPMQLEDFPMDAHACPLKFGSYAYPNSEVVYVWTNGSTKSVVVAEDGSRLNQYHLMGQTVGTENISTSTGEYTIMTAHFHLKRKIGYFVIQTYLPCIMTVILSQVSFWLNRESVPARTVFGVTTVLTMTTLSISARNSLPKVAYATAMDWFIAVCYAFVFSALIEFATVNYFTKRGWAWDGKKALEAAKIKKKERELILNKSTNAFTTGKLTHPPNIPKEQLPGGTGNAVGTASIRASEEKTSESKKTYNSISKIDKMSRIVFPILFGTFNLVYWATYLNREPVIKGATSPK"}, "[4]": {"target": "Gamma-aminobutyric acid receptor subunit alpha-1 (Rattus norvegicus, UniProt P62813)", "sequence (P62813 whole entry)": "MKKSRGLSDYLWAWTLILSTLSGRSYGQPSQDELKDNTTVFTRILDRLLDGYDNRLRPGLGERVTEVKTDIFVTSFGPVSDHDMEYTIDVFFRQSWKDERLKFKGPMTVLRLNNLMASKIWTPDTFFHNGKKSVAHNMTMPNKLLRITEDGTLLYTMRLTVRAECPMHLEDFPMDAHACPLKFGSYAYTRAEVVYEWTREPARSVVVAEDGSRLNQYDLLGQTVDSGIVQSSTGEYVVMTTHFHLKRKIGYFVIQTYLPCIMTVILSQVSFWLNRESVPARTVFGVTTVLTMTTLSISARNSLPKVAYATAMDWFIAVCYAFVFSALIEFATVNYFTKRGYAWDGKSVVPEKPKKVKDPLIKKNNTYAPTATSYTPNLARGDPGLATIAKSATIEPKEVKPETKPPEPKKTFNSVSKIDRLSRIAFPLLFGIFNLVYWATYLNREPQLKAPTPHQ"}, "[5]": {"target": "Gamma-aminobutyric acid receptor subunit alpha-4 (Rattus norvegicus, UniProt P28471)", "sequence (P28471 whole entry)": "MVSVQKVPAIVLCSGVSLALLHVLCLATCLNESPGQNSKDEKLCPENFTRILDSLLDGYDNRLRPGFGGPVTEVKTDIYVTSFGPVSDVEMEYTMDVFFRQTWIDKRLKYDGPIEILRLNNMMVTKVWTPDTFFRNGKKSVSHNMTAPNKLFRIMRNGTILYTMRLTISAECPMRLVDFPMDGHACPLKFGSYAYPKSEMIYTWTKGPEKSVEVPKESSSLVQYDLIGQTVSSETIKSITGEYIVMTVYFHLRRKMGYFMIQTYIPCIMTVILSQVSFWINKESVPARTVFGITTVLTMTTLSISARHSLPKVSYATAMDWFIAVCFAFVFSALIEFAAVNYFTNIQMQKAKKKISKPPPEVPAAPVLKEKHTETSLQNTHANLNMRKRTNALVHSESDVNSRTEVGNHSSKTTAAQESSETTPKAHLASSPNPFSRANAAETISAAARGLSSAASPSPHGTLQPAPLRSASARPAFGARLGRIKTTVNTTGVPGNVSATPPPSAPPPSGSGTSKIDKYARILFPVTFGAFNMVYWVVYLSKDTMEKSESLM"}, "[6]": {"target": "Gamma-aminobutyric acid receptor subunit alpha-6 (Rattus norvegicus, UniProt P30191)", "sequence (P30191 whole entry)": "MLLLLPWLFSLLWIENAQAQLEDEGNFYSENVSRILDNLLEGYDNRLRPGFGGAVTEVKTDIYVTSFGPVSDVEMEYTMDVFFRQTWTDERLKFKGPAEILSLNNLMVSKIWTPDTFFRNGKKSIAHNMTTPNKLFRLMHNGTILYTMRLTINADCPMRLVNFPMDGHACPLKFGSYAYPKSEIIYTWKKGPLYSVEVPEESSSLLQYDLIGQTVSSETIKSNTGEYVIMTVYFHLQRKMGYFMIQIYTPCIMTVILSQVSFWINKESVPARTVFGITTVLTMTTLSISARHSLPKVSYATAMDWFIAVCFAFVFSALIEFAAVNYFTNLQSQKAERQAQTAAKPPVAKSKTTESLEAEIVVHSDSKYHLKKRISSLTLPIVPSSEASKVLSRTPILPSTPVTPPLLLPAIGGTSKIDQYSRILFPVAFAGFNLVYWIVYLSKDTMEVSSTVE"}},
  "data": [
    {"smiles": "CC(=O)C1CCC2C3CC[C@H]4C[C@H](O)CC[C@]4(C)C3CC[C@]12C", "note": "(stereo partly specified) [Allopregnanolone]", "values": [
      {"measurement": "Ki", "setting": "[1]", "result": 41, "unit": "nM"},
      {"measurement": "Ki", "setting": "[2]", "result": 20, "unit": "nM"},
      {"measurement": "Ki", "setting": "[3]", "result": 21, "unit": "nM"},
      {"measurement": "Ki", "setting": "[4]", "result": 17.5, "unit": "nM"},
      {"measurement": "Ki", "setting": "[5]", "result": 1900, "unit": "nM"}
    ]},
    {"smiles": "C[C@]12CC[C@H]3[C@@H](CC[C@@H]4C[C@@](O)(C(F)(F)F)CC[C@@H]43)[C@@H]1CC[C@@H]2C(=O)CO", "note": "[GMA-839]", "values": [
      {"measurement": "Ki", "setting": "[1]", "result": 200, "unit": "nM"},
      {"measurement": "Ki", "setting": "[2]", "result": 96, "unit": "nM"},
      {"measurement": "Ki", "setting": "[6]", "result": 2000, "unit": "nM"},
      {"measurement": "Ki", "setting": "[3]", "result": 210, "unit": "nM"},
      {"measurement": "Ki", "setting": "[4]", "result": 200, "unit": "nM"},
      {"measurement": "Ki", "setting": "[5]", "result": 2300, "unit": "nM"}
    ]}
  ]
}
